From patent US8124964B2, “Field-effect transistor” (Nippon Kayaku Kabushiki Kaisha, priority 2006, dated 2012)

Legend:
[1] = Solubility Test 2: solubility to chloroform; format: physicochemical; conditions: room temperature, visually checked
Procedure: To confirm solubility to solvent, the solubility of a test compound to chloroform was measured. A test compound was added to chloroform little by little at room temperature and stirred. The solubility was determined by visually checking whether it was dissolved or not. When the test compound remained undissolved, the total amount by mass of the test compound added immediately before the moment was calculated and the solubility to chloroform was expressed in terms of % by mass.
After a chloroform suspension solution of the compound represented by the formula (101) above was prepared, insoluble solid substances were filtered off to obtain a filtrate. The solubility of the compound represented by the formula (101) above to the filtrate was 0.02% by mass.

[2] = Solubility Test 1: solubility to toluene; format: physicochemical; conditions: for Solubility (% by mass): to toluene, room temperature, visually checked
Procedure: To confirm solubility to solvent, which is one of the important characteristics of a semiconductor manufactured by coating, the solubility of a test compound to toluene was measured. A test compound was added to toluene little by little at room temperature and stirred. The solubility was determined by visually checking whether it was dissolved or not. When the test compound remained undissolved, the total amount by mass of the test compound added immediately before the moment was calculated and the solubility to toluene was expressed in terms of % by mass.
The “Compound No.” of Table 2 is the same as defined in Table 1. Furthermore, in Comparative Example 1, the solubility of Compound 16 of Example 15 disclosed in Patent Document 3 to toluene was calculated by the same test method as above. The structural formula of the compound used in Comparative Example 1 is shown in the formula (101) below.

SMILES | Solubility (% by mass) [1] [% by mass] | Solubility (% by mass) [2] | solubility to toluene relative to the aryl derivative of Comparative Example 1 [2] | Solubility (% by mass) ([2]; listed as formula (101))
CCCCCCCCCCCCc1ccc2c(c1)sc1c3ccc(CCCCCCCCCCCC)cc3sc21 [Compound No. 20, 2,7-Didodecyl[1]benzothieno[3,2-b][1]benzothiophene] | 0.6 | 0.2 % by mass | ≥ 20 fold | –
c1ccc(-c2ccc3c(c2)sc2c4ccc(-c5ccccc5)cc4sc32)cc1 [Comparative Example 1, reference compound] | 0.02 | 0.01 or less % by mass | – | not more than 0.01 % by mass
CCCCCCCCc1ccc2c(c1)sc1c3ccc(CCCCCCCC)cc3sc21 [Compound No. 16, 2,7-Dioctyl[1]benzothieno[3,2-b][1]benzothiophene] | 5.4 | 1.5 % by mass | at least 50 fold | –
